Test system: PBMCs
Experiment: PBMC culture with candidate peptides for 14 days, IFN-γ and IL-5 in supernatant by ELISA
Format: cell-based, human
Conditions: for IFN-γ/IL-5 ratio (geometric mean): peptide 10 μg/mL
Description: Measurement of antigen-specific T cell responses in the peripheral blood in humans differs depending on whether responses are high affinity interactions with foreign (viral) epitopes or lower affinity interactions involving recognition of self-antigens. […] Given that T cell responses directed against MAGE and IL-13Rα2 antigens also involve T cells with low affinity to these self-antigens, antigen-specific responses were quantified based on cytokine secretion, as recently described in a phase I study of patients with MS (Viglietta V, et al: Neurology 2008, 71(12):917-924). Cytokine production was quantified by ELISA, defining a positive T cell response for each patient as the amounts of IFN-γ or IL-5 that were >50 pg/mL and two standard deviations above the mean cytokine levels secreted after stimulation of cells from that patient with negative control MBP peptide.
Twenty-five mL of blood from patients or healthy subjects was obtained under an IRB-approved protocol. All samples of blood from patients were taken at the time of surgery. […] All tumor-bearing patients received similar doses of steroids and anti-epileptic medications at the time of tumor debulking surgery prior to obtaining peripheral blood for these studies. T cell responses in patients with meningiomas controlled for influences of steroids on antigen responsiveness and cytokine balance. Tumor tissue was independently confirmed in all cases by formal pathological analysis. PBMCs were purified from heparinized blood by density gradient centrifugation using Ficoll-Hypaque (GE Healthcare Biosciences), and cells were then washed with PBS and viable cells quantified by trypan-blue staining.
Freshly isolated PBMCs were plated at 2×10^5 cells/well in 200 μl of serum-free X-VIVO15 (X15) media (Lonza) in 96-well round-bottom cell culture plates. Candidate peptides, in addition to a negative control peptide derived from MBP were added at a concentration of 10 μg/mL and anti-CD3 mAb was added at a concentration of 1 μg/mL. Six T cell cultures were established for each condition in each subject, and 100 IU/ml of IL-2 was added on the following day. Plates were incubated at 37° C. and 5% CO2 for 14 days, with media changed as needed, and the supernatant was harvested to evaluate T cell responses (cytokines) induced by each condition using ELISA. In a limited number (n=3) of patients, cytokine production was assessed after both 7 and 14 days. […] An IFN-γ ELISPOT assay was performed as previously described (Lv H, Havari E, et al: J Clin Invest, 121(4):1561-1573).
To detect T helper cell responses directed against the candidate peptides, IFN-γ and IL-5 were measured by ELISA using commercially available kits supplied by BD bioscience. IFN-γ was used as a prototypic Th1 cytokine and IL-5 was chosen as a prototypic cytokine released by Th2 cells because unlike IL-4 there would be no potential consumption by antigen-specific T cells in the culture conditions (Kourilsky P, Truffa-Bachi P: Trends Immunol 2001, 22(9):502-509).

Sequence	positive wells among 6 primary T cell responses (IFN-γ or IL-5 ELISA) (Healthy Subject 1)	positive wells among 6 primary T cell responses (IFN-γ or IL-5 ELISA) (Healthy Subject 4)	positive wells among 6 primary T cell responses (IFN-γ or IL-5 ELISA) (Healthy Subject 5)	positive wells among 6 primary T cell responses (IFN-γ or IL-5 ELISA) (Meningioma 5)	positive wells among 6 primary T cell responses (IFN-γ or IL-5 ELISA) (Meningioma 6)	positive wells among 6 primary T cell responses (IFN-γ or IL-5 ELISA) (Primary GBM 2)	positive wells among 6 primary T cell responses (IFN-γ or IL-5 ELISA) (Primary GBM 3)	positive wells among 6 primary T cell responses (IFN-γ or IL-5 ELISA) (Primary GBM 4)	positive wells among 6 primary T cell responses (IFN-γ or IL-5 ELISA) (Primary GBM 5)	positive wells among 6 primary T cell responses (IFN-γ or IL-5 ELISA) (Primary GBM 7)	positive wells among 6 primary T cell responses (IFN-γ or IL-5 ELISA) (Primary GBM 8)	positive wells among 6 primary T cell responses (IFN-γ or IL-5 ELISA) (Recurrent GBM 1)	positive wells among 6 primary T cell responses (IFN-γ or IL-5 ELISA) (Recurrent GBM 3)	positive wells among 6 primary T cell responses (IFN-γ or IL-5 ELISA) (Recurrent GBM 5)	IFN-γ/IL-5 ratio (geometric mean) (healthy subjects)	IFN-γ/IL-5 ratio (geometric mean) (patients with primary GBMs)	IFN-γ/IL-5 ratio (geometric mean) (patients with recurrent GBMs)	further results
ILILVIFVTGLLLRK [IL-13Ra2351-365]	+ (+/++ cell=1-2 positive wells)	+++++ (+++++/++++++ cell=5-6 positive wells)	++ (+/++ cell=1-2 positive wells)	++ (+/++ cell=1-2 positive wells)	++++++ (+++++/++++++ cell=5-6 positive wells)	++ (+/++ cell=1-2 positive wells)	++ (+/++ cell=1-2 positive wells)	+++ (+++/++++ cell=3-4 positive wells)	+ (+/++ cell=1-2 positive wells)	+++ (+++/++++ cell=3-4 positive wells)	+++++ (+++++/++++++ cell=5-6 positive wells)	++ (+/++ cell=1-2 positive wells)	+ (+/++ cell=1-2 positive wells)	++ (+/++ cell=1-2 positive wells)	2.0	0.3	0.05	positive wells among 6 primary T cell responses (IFN-γ or IL-5 ELISA) (Healthy Subject 6): ++ (+/++ cell=1-2 positive wells); positive wells among 6 primary T cell responses (IFN-γ or IL-5 ELISA) (Meningioma 3): + (+/++ cell=1-2 positive wells); IFN-γ/IL-5 ratio, recurrent GBM patients compared to primary GBM patients (P<0.05): significantly lower; positive wells among 6 primary T cell responses (IFN-γ or IL-5 ELISA) (Primary GBM 1): +++ (+++/++++ cell=3-4 positive wells)
KVDELAHFLLRKYRAK [MAGE-A3112-127]	+++ (+++/++++ cell=3-4 positive wells)	++ (+/++ cell=1-2 positive wells)	+ (+/++ cell=1-2 positive wells)	+++ (+++/++++ cell=3-4 positive wells)	+ (+/++ cell=1-2 positive wells)	++ (+/++ cell=1-2 positive wells)	++ (+/++ cell=1-2 positive wells)	+ (+/++ cell=1-2 positive wells)	+++++ (+++++/++++++ cell=5-6 positive wells)	+++ (+++/++++ cell=3-4 positive wells)	++++ (+++/++++ cell=3-4 positive wells)	+ (+/++ cell=1-2 positive wells)	++ (+/++ cell=1-2 positive wells)	+ (+/++ cell=1-2 positive wells)	4.9	0.2	0.04	positive wells among 6 primary T cell responses (IFN-γ or IL-5 ELISA) (Healthy Subject 3): ++ (+/++ cell=1-2 positive wells); positive wells among 6 primary T cell responses (IFN-γ or IL-5 ELISA) (Primary GBM 6): ++ (+/++ cell=1-2 positive wells); positive wells among 6 primary T cell responses (IFN-γ or IL-5 ELISA) (Recurrent GBM 2): + (+/++ cell=1-2 positive wells); positive wells among 6 primary T cell responses (IFN-γ or IL-5 ELISA) (Recurrent GBM 4): ++ (+/++ cell=1-2 positive wells)

Reference: patent US20150290306A1, “COMPOSITIONS AND METHODS FOR DIAGNOSIS AND TREATMENT OF MALIGNANT GLIOMAS” (priority 2012, published 2015)
